Earlier results on two compounds are cited in US7833962B2, “Method of reducing hypertension by administering flavanol gylcosides” (Conopco, Inc., priority 2003, dated 2010).

Series [1] concerns Spontaneously Hypertensive Rats (SHR). The note with it: chronic treatment, Duarte et al. 2001.
For series [2] the following is noted: compared with quercetin glucosides such as isoquercitrin.

“Also recorded” adds a separate entry of the source.

In the case of `O=c1c(O)c(-c2ccc(O)c(O)c2)oc2cc(O)cc(O)c12` [quercetin aglycone, quercetin], in series [1], the blood pressure entry was “reduced blood pressure”; the glutathione peroxidase activity result is “increased glutathione peroxidase activity”; the “plasma and hepatic malondialdehyde levels” value was “reduced both plasma and hepatic malondialdehyde levels”.

For the compound `C[C@@H]1O[C@@H](OC[C@H]2O[C@@H](Oc3c(-c4ccc(O)c(O)c4)oc4cc(O)cc(O)c4c3=O)[C@H](O)[C@@H](O)[C@@H]2O)[C@H](O)[C@H](O)[C@H]1O` [rutin, quercetin-3-rutinoside], the bioavailability result in series [2] was “poor bioavailability; also recorded: much lower than the glucoside isoquercitrin”.
